Patent US20250114464A1, “PRE-MRNA SLICE MODULATING PEPTIDE-CONJUGATED ANTISENSE THERAPEUTICS FOR THE TREATMENT OF DISEASES” (The Governors of the University of Alberta, priority 2022, published 2025)

Legend:
[1] = system: Taiwanese SMA mouse model (Smn^−/− SMN2^Tg/−); assay: Neuromuscular junction (NMJ) staining at PD30; assay type: in vivo, mice; conditions: 40 mg/kg at PD0
Method: NMJ staining was carried out as previously described. Briefly, the quadricep and the intercostal muscle were fixed in 4% paraformaldehyde (PFA) for 2 hours. The muscles were washed quicky with PBS and blocked with 5% goat serum and 2% Triton-X in PBS for 1 hour at RT. This was followed by an overnight incubation at 4 with the primary mouse monoclonal antibodies anti-neurofilament 2H3 (1:100) and anti-synaptophysin (1:500) (DSHB, Iowa). Subsequently, the muscles were incubated in the dark with Alexafluor 488-goat anti-mouse IgG1 (1:1000) (Life Technologies) and Alexafluor 594-bungarotoxin (1:5000) (ThermoFisher Scientific). At least 300 NMJs were z-stacked and visualized for the analysis of denervation and cross-sectional area using a confocal microscope (Zeiss LSM 710) and Zeiss Zen software. The synaptic area was quantified using image J. All analyses were performed in a blinded fashion.

[2] = system: Taiwanese SMA mouse model (Smn^−/− SMN2^Tg/−); assay: Righting reflex test; assay type: in vivo; conditions: 40 mg/kg at PD0; mice that survived beyond PD12
Method: This spontaneous ability of the mice to right themselves up was tested from P2 until the weaning stage P20. The neonates were placed on their backs and the time taken to reposition and place all four paws on the ground was noted. The recording time was a maximum of 60 s. Each neonate underwent three trials, with a resting period of at least 10 minutes between trials. The data is expressed as the mean time to complete the righting reflex test ±SEM.

[3] = system: Taiwanese SMA mouse model (Smn^−/− SMN2^Tg/−); assay: Whole-body plethysmographic recordings at PD7; assay type: in vivo, mice; conditions: 40 mg/kg at PD0
Method: Measurements were performed in whole body, cylindrical transparent plexiglass plethysmographs that had one inflow and two outflow ports for the continuous delivery of fresh room air and removal of expired carbon dioxide. The plethysmograph of volumes were 10 ml (inner diameter: 1.9 cm, length: 3.5 cm for P7 mice with body weight less than 2.5 g), 30 ml (inner diameter: 2.6 cm, length: 5.6 cm for P7 mice with body weight more than 2.5 g) and 80 ml (inner diameter: 3.8 cm, length: 7 cm for P30) for measures of respiratory parameters with a flow rate of 15, 45, 120 ml/min, respectively. The gas was mixed with gas mixer (GSM-3, CWE InC, USA), delivered from compressed pure oxygen and pure nitrogen cannisters, being monitored using 0-200 ml/min gas regulators (Porter Instrument Company, USA).
Hypoxic challenge (11% of oxygen for 5 min) was performed with continuous monitoring of plethysmographic recordings without physical handling of the animal by switching inflow gas from normoxia (21% of oxygen, balanced by nitrogen) to hypoxia (11% of oxygen, balanced by nitrogen). […] For P30, the plethysmograph was recorded at room temperature of around 22° C. Pressure changes were detected with a pressure transducer (model DP 103; Validyne, USA), signal conditioner (CD-15; Validyne), recorded with data acquisition software (Axoscope) via analog-digital board (Digidata 1322A). […]

[4] = system: Taiwanese SMA mouse model (Smn^−/− SMN2^Tg/−); assay: Survival of severe SMA mice after subcutaneous injection at PD0; assay type: in vivo
Method: To examine whether DG9 peptide can increase the efficacy of PMO, DGS peptide was conjugated to an 18-mer PMO with a sequence identical to nusinersen. The DG9-conjugated PMO and unconjugated-PMO and 2′-O-methoxyethyl-RNA (MOE) were injected into SMA model mice.
Mice were subcutanteously injected with the AOs or saline (NT) administered at postnatal day 0 (PD0) at two different doses-40 mg/kg or 80 mg/kg. The survival was recorded until a humane endpoint was reached. For the 40 mg/kg doses, the median survival was 12 d (unconjugated-PMO), 15.5 d (MOE), and increased to 58 d for DG9-PMO treatment (FIG. 9a). The median survival incremented to 57 d (unconjugated-PMO), 121 d (DG9-PMO) and 64 d (MOE) for the higher dose of 80 mg/kg (FIG. 9a).
All animal experiments were conducted in University of Alberta and approved by the Animal Care and Use Committee, University of Alberta Research Ethics Office. SMA transgenic mice (JAX stock #005058 FVB.Cg-Tg(SMN2)2HungSmn1^tm1Hung/J (Smn^−/−; SMN2^Tg/Tg), also known as the Taiwanese mice) were purchased from Jackson Laboratory (Bar Harbor, ME, USA). Heterozygous mice for Smn1 (Smn1^+/−; SMN2^−/−) were crossed with mice homozygous for Smn1 Smn^−/−; SMN2^Tg/Tg to obtain the SMA mice (Smn^−/−; SMN2^Tg/−) or the heterozygous healthy control (Smn1^+/−; SMN2^Tg/−). The SMA mice display a severe overt phenotype similar to SMA type I patients. […]

[5] = system: Taiwanese SMA mouse model (Smn^−/− SMN2^Tg/−); assay: H and E muscle pathology (myofiber size, centrally nucleated fibers) in SMA mice; assay type: in vivo; conditions: 40 mg/kg at PD0
Source text: Atrophic musculature is a classical characteristic feature of SMA with diminished skeletal muscle fiber size. To determine the treatment effects on muscle pathology, we assessed the physiology and architecture of the myofibers of two affected muscle groups− the quadriceps and intercostal muscles, as well as the sparingly affected diaphragm at PD7 and PD30 [79,80]. We quantified the cross-sectional area (CSA), the minimal feret's diameter and centrally nucleated fibers for at least 500 myofibers per muscle for each treatment using hematoxylin & eosin (H & E) staining at PD7 and PD30 (FIG. 12a, b, FIGS. 19 and 20).
7 μm cryosections of the quadricep muscle, diaphragm and intercostal muscle were stained with Meyer's H&E reagents (Electron Microscopy Reagents). For the centrally nucleated fibers and myofiber size, 500-800 were randomly selected per muscle per treatment. The cross-sectional area and minimal Feter's diameter were quantified using Image J. All H and E analyses were performed in a blinded fashion.

dystrophin [6] = conditions: in vitro; cited from earlier work
dystrophin [7] = conditions: patients, after 180 weeks of treatment with 30 or 50 mg/kg/week; cited from earlier work

For “unconjugated-PMO: Example 2: 18-mer PMO targeting ISS-N1 intron 7 (5′-TCACTTTCATAATGCTGG-3′), sequence identical to nusinersen (all phosphorodiamidate morpholino (PMO); unconjugated)”, the NMJ architecture [1] was “smaller endplates and collapsed vesicles”, the “full innervation of NMJs” value ([1]; quadriceps and intercostal muscles) was 40-50% and the “time to right themselves on their paws” value [2] was “still took longer than DG9-PMO mice”. For the same substance, the “respiratory parameters (fR, VE, VT)” value ([3]; PD7, hypoxic environment (11% O2), relative to normoxia) was “slow, weak, and irregular breathing when compared to the Hets”, the respiratory phenotype ([3]; PD7, normoxic conditions (21% O2)) was “Half of the unconjugated-PMO mice (n=14) exhibited parameters as seen in NT mice” and the median survival ([4]; 40 mg/kg subcutaneous at PD0) was 12 days. The median survival ([4]; 80 mg/kg subcutaneous at PD0) was 57 days, the quadriceps myofiber size ([5]; PD7) was “significantly smaller than those of DG9-PMO” and the “myofiber size and percent of central nuclei” value ([5]; PD30, all three tissue types) was “significantly smaller myofibers and a higher percent of central nuclei compared to DG9-PMO”.
In the case of “Ex51_Ac0: exon 51-skipping PMO, GTGTCACCAGAGTAACAGTCTGAGTAGGAG (all phosphorodiamidate morpholino (PMO); DG9 cell-penetrating peptide conjugated at 3' end in DG9-PMO)”, the “effectiveness in restoring dystrophin production relative to eteplirsen” value (dystrophin [6]) is listed as “up to 7 times”.
In the case of eteplirsen, the “dystrophin of normal levels” value (dystrophin [7]) is listed as 0.93%.
